Test results: patent US20230233533A1, “COMPOSITIONS, METHODS OF TREATING AND PREVENTING FUNGAL INFECTIONS, AND METHODS OF INHIBITING PRP8 INTEIN EXPRESSION” (Health Research, Inc., priority 2020, published 2023)
In brackets after ≈: the same amount, converted by molar mass. Numbered stars: 1 amine (or outer) side, 2 acyl side, 3 side chain; on linkers, the order of the positions; unused ones are H or OH. Bridge positions count the residues as written; N and C are the ends. Square brackets hold non-standard residues; d marks the D form. Peptide text beside a SMILES is read from it. * marks the point of attachment. hTyr(3S-OH,4S-OH,3'-OSO3H) = N[C@H](C(=O)O)[C@H](O)[C@@H](O)c1ccc(O)c(OS(=O)(=O)O)c1; pTerphenylCO(4''-OnC5H11) = CCCCCOc1ccc(-c2ccc(-c3ccc(C(=O)*)cc3)cc2)cc1; Orn(4R-OH,5R-OH) = O=C([C@H](C[C@@H](O)[C@@H](O)N[*:3])N[*:1])[*:2]; hTyr(3S-OH,4S-OH) = N[C@H](C(=O)O)[C@H](O)[C@@H](O)c1ccc(O)cc1; Pro(3S-OH,4S-Me) = C[C@H]1CN[C@H](C(=O)O)[C@H]1O; X1 = CCCCCOc1ccc(-c2cc(-c3ccc(C(=O)*)cc3)no2)cc1; Gln(3R-OH) = NC(=O)C[C@@H](O)[C@H](N)C(=O)O; Hyp = O=C(O)[C@@H]1C[C@@H](O)CN1

Assays:
C. neoformans = assay: Sensititre YeastOne Y09 AST drug combination assay; assay type: cell-based, Cryptococcus neoformans; conditions: 6G-318S at 0.16 ug/ml, C. neoformans H99
Experimental: Sensititre YeastOne Y09 AST assay—Fungal susceptibility to a combination of compounds was carried out using the Sensititre YeastOne Y09 AST assay kit (Thermofisher), according to the manufacturer's manual. Briefly, fungal C. neoformans cells in exponential growth phase were diluted to a final OD530 of 0.1. Then 20 μl diluted cells were further diluted into 10 ml YPD as a stock. […] The stock C. neoformans (100 μl, ˜200 cells) were dispensed into the compound-ready 96-well plate. The fungal cells (treated or with DMF) were incubated at 30° C. for 48 h. The cell cultures were visualized by naked eye. The MIC break points were determined according to manufacturer's instructions.

Prp8 intein [1] = target: T1, Prp8 intein (Cryptococcus gattii, UniProt E6R027); assay: Split Renilla luciferase RLuc-Prp8 intein splicing assay; assay type: biochemical; conditions: split Renilla luciferase RLuc-Prp8 intein splicing
T1 sequence (E6R027 entry or part of it): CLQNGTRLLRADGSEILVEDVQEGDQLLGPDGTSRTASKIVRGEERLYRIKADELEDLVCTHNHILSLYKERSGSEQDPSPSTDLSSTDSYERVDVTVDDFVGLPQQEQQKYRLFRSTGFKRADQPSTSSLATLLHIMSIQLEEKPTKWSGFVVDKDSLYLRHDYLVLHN
Experimental: Split luciferase Prp8 intein splicing assay—The split RLuc-Prp8 fusion protein was carried out and monitored using a Veritas luminometer, as described previously.
Split luciferase RLuc-Prp8 and NnLuc-Prp8 intein splicing assays—The split RLuc-Prp8 intein splicing assay was carried out and monitored using a Veritas luminometer, as described previously. […] Microbes. Infect. […] For NnLuc-Prp8 intein splicing assay, the NnLuc-prp8 is diluted in assay buffer (50 mM Tris, 0.1% BSA, 1 mM EDTA, pH 7.4) and 50 ul is added to each well in 96 well black plates. Test molecules or the solvent was added and incubated for 30 to 60 min. A splicing inducer TCEP (50 ul, 100 μM) is added and incubated for 24 h. Luciferase substrate (Furimazine, 25 ul 1:10,000 diluted) is added and luminescence is read using a luminescence reader. IC50 is calculated using Graphpad prism.

C. neoformans H99 strain = assay: Fungal susceptibility test, broth microdilution MIC; assay type: cell-based, Cryptococcus neoformans; conditions: Cryptococcus neoformans, H99STRAIN; C. neoformans H99, microbroth dilution; read-out: MIC H99
Experimental: Fungal susceptibility test—The fungal susceptibility test was carried out with a compound concentration series as described. […] The broth microdilution method was used to determine the compound MIC values against C. neoformans.
Fungal susceptibility test—The fungal susceptibility test was carried out with a compound concentration series as described. […] Microbes. Infect. […] The broth microdilution method was used to determine the compound MIC values against C. neoformans.

Prp8 intein [2] = target: T1, Prp8 intein; assay: Split GFP-Prp8i intein splicing assay; assay type: biochemical; conditions: split GFP-Prp8 intein splicing
Experimental: Cloning, expression and purfication—The split GFP-Prp8i was constructed using a mega-PCR mutagenesis approach. […] After digestion with Dpn I restriction enzyme, the PCR product was transformed into DH5α Escherichia coli. Clones were verified by plasmid DNA sequencing. The expression, refolding and purification of the GFP-Prp8i fusion protein were carried out as described previously.
[…] Then 100 μl 2×TCEP was added to a final concentration of 20 μM. The reactions were incubated at 25° C. overnight. […] Two readings were taken, one prior to addition of TCEP (I0) and one after incubation overnight with TCEP (If). Fluorescence/luminescence differences (ΔFluorescence or ΔLuminescence) were defined as If−I0 for each well. […] DMF control served as 100% splicing activity.
Split GFP-Prp8 and CJGFP-Prp8 intein splicing assays—Using black and clear bottom 96-well plates, the DPNB-treated, -refolded and -concentrated GFP-Prp8 or CfGFP-Prp8 fusion protein (0.5 μM) was incubated with compounds or Dimethylsulfoxide (DMSO) solvent control for 30 min at 25° C. in a 100 μl intein splicing buffer (20 mM Bis-tris propane, 0.5 M NaCl, 0.5 M arginine, 1 mM EDTA, and 0.05% CHAPS). Then 100 μl 2×TCEP was added to a final concentration of 20 μM. The reactions were incubated at 25° C. overnight. […] Two readings were taken, one prior to addition of TCEP (I0) and one after incubation overnight with TCEP (If). Fluorescence/luminescence differences (ΔFluorescence or ΔLuminescence) were defined as If−I0 for each well. […] DMSO control served as 100% splicing activity.

in vitro = assay type: cell-based, human; conditions: human, CC50 A549
Experimental: Cytotoxicity—Cytotoxicity assays were carried out using human lung carcinoma cell line A549, as described (Chen et al., “Selective Inhibition of the West Nile Virus Methyltransferase by Nucleoside Analogs,” Antiviral Research 97(3):232-239 (2013), which is hereby incorporated by reference in its entirety). Briefly, the A549 cells (5×10^3) were incubated with/without compounds in a 96-well plate at 37° C. for 48 h. Cell viability was determined using the MTT assay (ATCC) as was described previously (Chen et al., “Selective Inhibition of the West Nile Virus Methyltransferase by Nucleoside Analogs,” Antiviral Research 97(3):232-239 (2013) and Brecher et al., “Identification and Characterization of Novel Broad-Spectrum Inhibitors of the Flavivirus Methyltransferase,” ACS Infectious Diseases 1(8):340-349 (2015), both of which are hereby incorporated by reference in their entirety). N=3.
Cytotoxicity—Cytotoxicity assays were carried out using human lung carcinoma cell line A549, as described. Chen et al., “Selective Inhibition of the West Nile Virus Methyltransferase by Nucleoside Analogs,” Antiviral Res. 97:232-9 (2013), which is hereby incorporated by reference in its entirety. Briefly, the A549 cells (5×10^3) were incubated with/without compounds in a 96-well plate at 37° C. for 48 h. Cell viability was determined using the MTT assay (ATCC) as was described previously (Chen et al., “Selective Inhibition of the West Nile Virus Methyltransferase by Nucleoside Analogs,” Antiviral Research 97(3):232-239 (2013) and Brecher et al., “Identification and Characterization of Novel Broad-Spectrum Inhibitors of the Flavivirus Methyltransferase,” ACS Infectious Diseases 1(8):340-349 (2015), both of which are hereby incorporated by reference in their entirety). N=3.

In the case of `CCCCCOc1ccc(-c2ccc(-c3ccc(C(=O)N[C@H]4C[C@@H](O)[C@@H](O)NC(=O)[C@@H]5[C@@H](O)[C@@H](C)CN5C(=O)[C@H]([C@@H](C)O)NC(=O)[C@H]([C@H](O)[C@@H](O)c5ccc(O)cc5)NC(=O)[C@@H]5C[C@@H](O)CN5C(=O)[C@H]([C@@H](C)O)NC4=O)cc3)cc2)cc1` [AND, Anidulafungin] ({pTerphenylCO(4''-OnC5H11)}-[Orn(4R-OH,5R-OH)]T[Hyp][hTyr(3S-OH,4S-OH)]T[Pro(3S-OH,4S-Me)]; lactam 1-C), the “reduction of MIC of known antifungal on addition of 6G-318S” value (shortened to “reduction of MIC of known antifungal”) (C. neoformans) is reported as “did not change”.

In the case of `CC[C@H](C)C[C@H](C)CCCCCCCCC(=O)N[C@H]1C[C@@H](O)[C@@H](NCCN)NC(=O)[C@@H]2[C@@H](O)CCN2C(=O)[C@H]([C@H](O)CCN)NC(=O)[C@H]([C@H](O)[C@@H](O)c2ccc(O)cc2)NC(=O)[C@@H]2C[C@@H](O)CN2C(=O)[C@H]([C@@H](C)O)NC1=O` [CAS, Caspofungin], the “reduction of MIC of known antifungal” value (C. neoformans) is reported as “did not change”.

For `OC(Cn1cncn1)(Cn1cncn1)c1ccc(F)cc1F` [FZ, fluconazole], the “reduction of MIC of known antifungal” value (C. neoformans) was “did not change”.

Work on `O=C(Nc1ccc(F)cc1F)c1nnsc1Sc1ccc(Cl)cc1` [JMX0569, 5-((4-Chlorophenyl)thio)-N-(2,4-difluorophenyl)-1,2,3-thiadiazole-4-carboxamide] yielded an IC50 (Prp8 intein [1]) of 36.2 µM, an MIC (C. neoformans H99 strain) of over 100 µM and an IC50 (Prp8 intein [2]) of over 50 µM. It also gave a CC50 at 48 h (in vitro) of 186 µM.

In the case of `O=C(Nc1ccc(Cl)cc1)c1nnsc1Sc1ccc(Cl)cc1` [JMX0570, N-(4-Chlorophenyl)-5-((4-chlorophenyl)thio)-1,2,3-thiadiazole-4-carboxamide], the IC50 (Prp8 intein [1]) is reported as 21.6 µM, the MIC (C. neoformans H99 strain) is reported as over 100 µM and the IC50 (Prp8 intein [2]) is reported as 38.7 µM. For the same compound, the CC50 at 48 h (in vitro) was 83.7 µM.

With `O=C(Nc1ccc(Cl)cc1)c1nnsc1S(=O)(=O)c1ccc(Cl)cc1` [JMX0571, N-(4-Chlorophenyl)-5-((4-chlorophenyl)sulfonyl)-1,2,3-thiadiazole-4-carboxamide] the IC50 (Prp8 intein [1]) was 12.6 µM, the MIC (C. neoformans H99 strain) was 0.39 µM (≈ 0.162 µg/mL) and the IC50 (Prp8 intein [2]) was 1.8 µM. It also gave a CC50 at 48 h (in vitro) of 33.8 µM.

With `O=C(NCc1ccc(F)cc1)c1nnsc1Sc1ccc(Cl)cc1` [JMX0573, 5-((4-Chlorophenyl)thio)-N-(4-fluorobenzyl)-1,2,3-thiadiazole-4-carboxamide] the IC50 (Prp8 intein [1]) was 5.5 µM, the MIC (C. neoformans H99 strain) was over 100 µM and the IC50 (Prp8 intein [2]) was over 50 µM. For the same compound, the CC50 at 48 h (in vitro) was 282 µM.

Compound `O=C(NCc1ccc(F)cc1)c1nnsc1S(=O)(=O)c1ccc(Cl)cc1` [JMX0574, 5-((4-Chlorophenyl)sulfonyl)-N-(4-fluorobenzyl)-1,2,3-thiadiazole-4-carboxamide] has an IC50 (Prp8 intein [1]) of 59.1 µM, an MIC (C. neoformans H99 strain) of 0.78 µM (≈ 0.321 µg/mL) and an IC50 (Prp8 intein [2]) of 1.6 µM. It also gave a CC50 at 48 h (in vitro) of 21.5 µM.

With `O=C(Nc1ccc(C(F)(F)F)cc1)c1nnsc1Sc1ccc(Cl)cc1` [JMX0575, 5-((4-Chlorophenyl)thio)-N-(4-(trifluoromethyl)phenyl)-1,2,3-thiadiazole-4-carboxamide] the IC50 (Prp8 intein [1]) was 21.5 µM, the MIC (C. neoformans H99 strain) was over 100 µM and the IC50 (Prp8 intein [2]) was over 50 µM. For the same compound, the CC50 at 48 h (in vitro) was 271 µM.

For `O=C(Nc1ccc(C(F)(F)F)cc1)c1nnsc1S(=O)(=O)c1ccc(Cl)cc1` [JMX0576, 5-((4-Chlorophenyl)sulfonyl)-N-(4-(trifluoromethyl)phenyl)-1,2,3-thiadiazole-4-carboxamide], the IC50 (Prp8 intein [1]) was 11.9 µM, the MIC (C. neoformans H99 strain) was 0.78 µM (≈ 0.349 µg/mL) and the IC50 (Prp8 intein [2]) was 0.9 µM. It also gave a CC50 at 48 h (in vitro) of 40.3 µM.

For `O=C(Nc1ccc(F)cc1)c1nnc(Sc2ccc(Cl)cc2)s1` [JMX0584, 5-((4-chlorophenyl)thio)-N-(4-fluorophenyl)-1,3,4-thiadiazole-2-carboxamide], the IC50 (Prp8 intein [1]) was 11 µM, the MIC (C. neoformans H99 strain) was over 100 µM and the IC50 (Prp8 intein [2]) was over 50 µM. It also gave a CC50 at 48 h (in vitro) of over 150 µM.

For `O=C(Nc1ccc(F)cc1)c1nnc(S(=O)(=O)c2ccc(Cl)cc2)s1` [JMX0585-1, 5-((4-chlorophenyl)sulfonyl)-N-(4-fluorophenyl)-1,3,4-thiadiazole-2-carboxamide], the IC50 (Prp8 intein [1]) was 19.4 µM, the MIC (C. neoformans H99 strain) was 3.12 µM (≈ 1.24 µg/mL) and the IC50 (Prp8 intein [2]) was 5.7 µM. For the same compound, the CC50 at 48 h (in vitro) was 26 µM.

`O=C(Nc1ccc(F)cc1)c1nnc([S+]([O-])c2ccc(Cl)cc2)s1` (stereo not drawn) [JMX0585-2, 5-((4-chlorophenyl)sulfinyl)-N-(4-fluorophenyl)-1,3,4-thiadiazole-2-carboxamide] showed an IC50 (Prp8 intein [1]) of 20.9 µM, an MIC (C. neoformans H99 strain) of 0.097 µM (≈ 0.037 µg/mL) and an IC50 (Prp8 intein [2]) of 4.5 µM. It also gave a CC50 at 48 h (in vitro) of 28.5 µM.

In the case of `CCCCCOc1ccc(-c2cc(-c3ccc(C(=O)N[C@H]4C[C@@H](O)[C@@H](O)NC(=O)[C@@H]5[C@@H](O)[C@@H](C)CN5C(=O)[C@H]([C@H](O)CC(N)=O)NC(=O)[C@H]([C@H](O)[C@@H](O)c5ccc(O)c(OS(=O)(=O)O)c5)NC(=O)[C@@H]5C[C@@H](O)CN5C(=O)[C@H]([C@@H](C)O)NC4=O)cc3)no2)cc1` [MF, Micafungin] (X1-[Orn(4R-OH,5R-OH)]T[Hyp][hTyr(3S-OH,4S-OH,3'-OSO3H)][Gln(3R-OH)][Pro(3S-OH,4S-Me)]; lactam 1-C), the “reduction of MIC of known antifungal” value (C. neoformans) is reported as “did not change”.

With `CC[C@@H]([C@H](C)O)n1ncn(-c2ccc(N3CCN(c4ccc(OC[C@@H]5CO[C@@](Cn6cncn6)(c6ccc(F)cc6F)C5)cc4)CC3)cc2)c1=O` [PZ, Posaconazole] the “reduction of MIC of known antifungal” value (C. neoformans) was “did not change”.
